The results in this text go back to the METLIN SMRT retention time set (Domingo-Almenara et al. 2019).

Each structure is given as a SMILES string.

The data set in a line: gradient 5% acetonitrile 3 min, to 50% in 2 min, to 85% in 15 min, held 3 min, 100 µL/min. Particulars: column: Zorbax Extend-C18 2.1 x 50 mm; eluents: water / acetonitrile, 0.1% formic acid. A digest of the protocol:
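Each retention time is based on an adduct peak selected computationally and verified by manual inspection. Measurements used HPLC–quadrupole time-of-flight mass spectrometry in positive and negative ionization mode on mixtures of ~100 pure standards. Chromatography ran on a Zorbax Extend-C18 column (2.1 × 50 mm, 1.8 μm) at 100 μL/min with water and acetonitrile, each containing 0.1% formic acid, and dead and dwell volumes of 40 μL and 900 μL.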
For `Cc1cccc(CC(=O)N2C[C@@H]3C[C@H](NS(C)(=O)=O)[C@H]2C3)c1`, the RP-LC retention time is 662 s. `Cn1c(=O)n(C)c2cc(CNc3ccc(C(=O)O)cc3)ccc21`: the RP-LC retention time is 687 s.

`COc1ccc(-n2cc(C(=O)OCC3CCCO3)c3ccccc3c2=O)cc1` (stereo not given) registered an RP-LC retention time of 993 s.

Turning to `CNC(=O)[C@@H]1CN(C(=O)c2ccsc2)C[C@H]1c1nc(C)no1`, the RP-LC retention time is 615 s. Take `CCC(CO)NCc1ccc(-c2cc(Cl)ccc2Cl)o1` (stereo not given): the RP-LC retention time was determined as 693 s. Next, `Clc1cccc(-c2noc(Cc3nc(-c4cccs4)cs3)n2)c1`: 1270 s; `O=C(NCCc1ccco1)C1CCCN(C(=O)c2cccn2-c2cccnc2)C1` (stereo not given): 660 s. Next, `Cc1ccc(CNC(=O)C2CCN(S(=O)(=O)c3ccc4c(c3)CCCC(=O)N4)CC2)o1`: 710 s. Next, `O=C(C1=NN(Cc2ccc(F)cc2)c2ccccc2S1(=O)=O)N1CCCCC1`: 885 s; `O=C(c1ccc2ncnc(N3CCCC3)c2c1)N1CCCC1`: 580 s; `CCc1ccc(C(O)CN2CCN(c3ncccn3)CC2)cc1` (stereo not given): 621 s. `CCOC(=O)CCCSc1nc2sc3c(c2c(=O)[nH]1)CCC3`: the RP-LC retention time is 870 s. As to `Cc1cc(C(=O)NCCCN2CCCC2=O)c2c(C)nn(-c3ccccc3)c2n1`, the RP-LC retention time was determined as 732 s.

Regarding `CCc1nc2cc3c(cc2n1CC(=O)Nc1ccc(OC)cc1)OCCO3`, the RP-LC retention time is 640 s.

As for `Cc1cc(C)cc(C(=O)NC2CCN(c3cc(-c4ccc(F)cc4)[nH]n3)C2)c1` (stereo not given), the RP-LC retention time was determined as 795 s.

For `CC1CCC(NC(=O)c2ccc(Cn3cncn3)cc2)CC1` (stereo not given), the RP-LC retention time stood at 726 s.

Regarding `CCOc1ccc(C2Cn3nnc(-c4nc(-c5cccnc5)no4)c3CO2)cc1` (stereo not given), the RP-LC retention time came to 982 s.

The molecule `O=C(c1ccc(Br)o1)N1CCC(Cc2nnc(-c3ccccc3)o2)CC1` showed an RP-LC retention time of 881 s.

For the molecule `COc1cccc(NS(=O)(=O)c2cc3n(c2)CCN(CC(C)C)C3=O)c1`, the RP-LC retention time was 784 s. Next, `O=C(OCc1cc(-c2cccs2)on1)c1cc(-c2ccco2)n[nH]1`: 786 s; `COc1cccc(NC(=O)C2CCN(S(=O)(=O)c3cc(C(=O)N(C)C)cs3)CC2)c1`: 760 s. Next, `Cc1ccccc1N1CCN(C(=O)CCC2CCN(c3cc(NC4CC4)ncn3)CC2)CC1`: 768 s; `O=c1n(Cc2ccccc2)nc2ccc(S(=O)(=O)N3CCOCC3)cn12`: 778 s. `CC(C)(C)NC(=O)CSc1nc(-c2cccs2)cc(C(F)(F)F)c1C#N`: the RP-LC retention time stood at 991 s. `CCn1cnc(S(=O)(=O)N2CCC(C(=O)NCc3ccccn3)CC2)c1` gave an RP-LC retention time of 540 s. `O=C1CC(C(=O)N2CCCC2)CN1CCc1c[nH]c2ccc(Cl)cc12` (stereo not given) registered an RP-LC retention time of 731 s. For `O=C(NC1CCCCCC1)c1nnc(-c2ccc(S(=O)(=O)N3CCCCC3)cc2)o1`, the RP-LC retention time turned out to be 1100 s. For `COc1ccc(CNC(=O)Cn2cnc3c(sc4nc(-c5ccccc5)ccc43)c2=O)cc1`, the RP-LC retention time came to 950 s. Next, `Cc1ccc(NC(=O)CN2CCc3[nH]c4c(C)c(Cl)ccc4c(=O)c3C2)c(Cl)c1`: 741 s. Molecule `Cc1ccc(N2C(=O)CCS2(=O)=O)cc1S(=O)(=O)N1CCC(C(N)=O)CC1` displayed an RP-LC retention time of 638 s. In the case of `CC1(C(=O)NCc2ccc(F)cc2)CCCN(C(=O)Nc2cccc(Cl)c2)C1` (stereo not given), the RP-LC retention time worked out at 967 s. With `Cc1ccc2c(Nc3ccc(F)c(Cl)c3)c(-c3nc(C)no3)cnc2n1`, the RP-LC retention time was determined as 804 s.

Regarding `Cc1ccc(-c2nnc(Cc3nc(-c4ccc(OC(C)C)cc4)no3)o2)cc1C`, the RP-LC retention time is 1240 s. In turn, `CCN(CC)CCCN(c1ccccc1)C1Cc2ccccc2C1` had an RP-LC retention time of 754 s. Next, `Cc1[nH]nc(-c2ccc(S(=O)(=O)N3CCC(C)CC3)o2)c1C`: 932 s; `Cc1oc2ccn(Cc3cccc(F)c3)c(=O)c2c1C(=O)NCC1CCCO1` (stereo not given): 891 s; `O=C(c1ccccn1)N1CCCC(c2n[nH]c(C3CC3)n2)C1` (stereo not given): 542 s. The molecule `CCCCOc1ccc(NC(=O)c2cc(=O)c3cc(CC)ccc3o2)c2cccnc12` came in with an RP-LC retention time of 786 s. On to `COC(=O)c1c(C)[nH]c(C(=O)N2CCC(CC(=O)N3CCCCC3)CC2)c1C`, for which the RP-LC retention time came to 716 s. Take `Cc1[nH]c(C(=O)N2CCCC(C(=O)NC(C)C)C2)c(C)c1C(=O)OC(C)C` (stereo not given): the RP-LC retention time stood at 770 s.

Take `COc1ccccc1C(=O)NC1CCN(c2ccc(C)cc2)C1=O` (stereo not given): the RP-LC retention time came out at 870 s. For the molecule `CC(=O)Nc1ccc(S(=O)(=O)N2CCC(CN3CCC(C)CC3)CC2)cc1`, the RP-LC retention time is 608 s.

Regarding `Cc1c(Cl)cccc1NC(=O)C1CCN(c2c(C(=O)N3CCC(C)CC3)cnc3snc(C)c23)CC1`, the RP-LC retention time was determined as 1040 s. Regarding `O=C(Cc1nnc(-c2ccc3ncccc3c2)o1)N1CCN(c2ccccc2F)CC1`, the RP-LC retention time turned out to be 753 s. The molecule `COCCN1C(=O)c2ccccc2C(C(=O)NCCc2ccccc2)C12CCCC2` (stereo not given) yielded an RP-LC retention time of 827 s. The molecule `Cc1ccccc1CNC(=O)C1(C)CCCN(C(=O)Nc2ccccc2Br)C1` (stereo not given) returned an RP-LC retention time of 1020 s.

For `CCc1noc(NC(C)=O)c1-c1ccc(OC)c(S(=O)(=O)Nc2cc(C)ccc2C)c1`, the RP-LC retention time is 846 s. On to `Cc1ccc2c(c1)OCC(=O)N2Cc1nc(-c2ccccc2)no1`, for which the RP-LC retention time is 1040 s. Consider `CN(CCOC(=O)c1cccs1)Cc1ccccc1`, for which the RP-LC retention time was 623 s.

As to `CCCCn1cc(S(=O)(=O)Nc2cccc(CC)c2)c2cccnc21`, the RP-LC retention time was 1070 s. Molecule `COc1ccccc1-n1nnc(C(=O)N2CCc3ccccc32)c1-c1ccccn1` had an RP-LC retention time of 836 s. For the molecule `CCC(C(=O)Nc1nc2ccccc2[nH]1)n1cnc2ccccc2c1=O` (stereo not given), the RP-LC retention time amounted to 652 s. Next, `CCN(CC)c1ccc(NC(=O)C2CCCN(c3ccc(=O)n(-c4cccc(Cl)c4)n3)C2)c(C)c1` (stereo not given): 662 s; `COCc1cnc2c(c1SCc1cccc(F)c1)c(=O)n(C)c(=O)n2C`: 960 s. `O=C1COc2ccccc2N1Cc1nc(-c2ccc(Cl)cc2)no1` yielded an RP-LC retention time of 1070 s. For the molecule `CCN1C(=O)COc2ccc(-c3noc(-c4cnccn4)n3)cc21`, the RP-LC retention time was 802 s.

As to `CC(C)c1ccc(NC(=O)C2CCN(C(=O)c3ncn4c3COC(c3ccc(F)cc3)C4)CC2)cc1` (stereo not given), the RP-LC retention time turned out to be 949 s. In the case of `O=C(NCc1ccccn1)C1CCN(c2cc(N3CCSCC3)ncn2)CC1`, the RP-LC retention time stood at 559 s. On to `Cc1cccc(Nc2c(-c3ccc(O)cc3)nc3ncccn23)c1`, for which the RP-LC retention time amounted to 700 s. `CCOC(=O)CSc1nnc(CNC(=O)c2cc(OC)c(OC)c(OC)c2)n1C` showed an RP-LC retention time of 601 s. Next, `COCCn1nc2n(c1=O)CCN(C(=O)c1ccco1)CC2`: 585 s. Next, `CCn1nnc2ccc(-c3noc(-c4ccccc4)n3)cc21`: 1040 s; `O=C1CC(c2noc(-c3cc(F)ccc3F)n2)CN1c1ccc(F)c(Cl)c1` (stereo not given): 1110 s. Regarding `CCCn1cc(-c2ccncc2)cc1C(=O)Nc1ccc(NC(C)=O)cc1`, the RP-LC retention time was found to be 594 s. On to `COC(=O)c1cc(OCC(=O)Nc2ccccc2F)c2cc(F)ccc2n1`, for which the RP-LC retention time was 857 s.

Take `COc1ccc(C(=O)Nc2cc(-c3cccnc3)no2)cc1`: the RP-LC retention time worked out at 721 s. `Cc1noc(-c2cc(=O)n(CC(=O)NCc3ccc4c(c3)OCO4)c3ccccc23)n1` gave an RP-LC retention time of 802 s. Next, `COc1ccc(N2C=C(C#N)S(=O)(=O)c3ccc(Cl)cc32)cc1OC`: 916 s. Next, `COc1cc(NC(=O)Cn2c(=O)n(-c3ccc(C)cc3)c(=O)c3c2cc(C)n3C)cc(OC)c1`: 866 s. In turn, `Cc1cc(C)cc(Oc2nccn3c(=O)n(CC(=O)NC4CCCCC4)nc23)c1` returned an RP-LC retention time of 905 s. `CCC(C(=O)NCCOc1ccc2nnc(-c3ccc(OC)cc3)n2n1)c1ccccc1` (stereo not given) gave an RP-LC retention time of 735 s. `CC1CCN(C(=O)c2cc(S(=O)(=O)N(C)CC(=O)NC3CC3)cn2C)CC1`: the RP-LC retention time came to 693 s. Take `Cc1noc2nc(C)n(CC(=O)NCc3cccc(F)c3)c(=O)c12`: the RP-LC retention time amounted to 740 s.

`O=C(NC1CCN(c2cc(-c3cccs3)[nH]n2)C1)c1cccc(F)c1` (stereo not given) returned an RP-LC retention time of 715 s. `CCOc1cccc(-c2noc(Cn3cnc4c(cnn4-c4ccc(OC)cc4)c3=O)n2)c1`: the RP-LC retention time worked out at 1090 s. Molecule `COC(=O)c1nnn(-c2cccc(C)c2C)c1C(=O)OC` returned an RP-LC retention time of 878 s. Molecule `CCOC(=O)c1sc(NC(=O)CSc2nccn2C)nc1-c1ccccc1` showed an RP-LC retention time of 678 s. In turn, `COCCOCc1nc(C2CCN(S(=O)(=O)c3cccc4nsnc34)C2)no1` (stereo not given) registered an RP-LC retention time of 769 s. Next, `O=C(Cn1cccc1-c1nnc(C2CCC2)o1)NCc1ccc(Cl)cc1`: 907 s; `COc1ccc(NC(=O)C2CC(=O)N(c3cccc(NC(C)=O)c3)C2)cc1Cl` (stereo not given): 709 s.
